Laboratory results reported in article PMC3258254, “Intestinal Absorption and First-Pass Metabolism of Polyphenol Compounds in Rat and Their Transport Dynamics in Caco-2 Cells” (PLoS ONE, 2012).

Tests used:
rat small intestine = assay: In situ intestinal perfusion model (isolated rat small intestine, luminal and vascular perfusion); type: in vivo
Description: The rats were anaesthetized with an intra-abdominal injection of a mixture containing 40 mg•kg^–1 sodium phenobarbital. The animals were then heparinized (90 U•kg^–1) via the vena caudalis. […] Briefly, a segment of intestine between 7 and 11 cm long was identified and separated and silicone tubing was placed inside both ends of the segment. The tube at the proximal side was connected to a peristaltic pump for luminal perfusion.

[1] = Transport (permeability, Papp) across Caco-2 cell monolayers; type: in vitro ADME, human; conditions: human, mean ± SD; for Papp A→B at 50 µM: Caco-2, apical to basolateral, n = 6, read-out: Papp AP to BL; for Papp B→A at 50 µM: Caco-2, basolateral to apical, n = 6, read-out: Papp BL to AP
Description: (§1) Caco-2 cells, derived from human colorectal adenocarcinoma cells, were obtained from the American Type Culture Collection (Manassas, VA, USA) and maintained in plastic culture flasks (Corning Costar, Cambridge, MA, USA). The cells were cultured in Dulbecco's modified Eagle's minimal essential medium supplemented with 1% non-essential amino acids, 1% L-glutamine, 20% foetal bovine serum, 100 U•mL^–1 penicillin, and 0.1 mg•mL^–1 streptomycin, and were grown in a humidified atmosphere of 5% CO2 in air at 37°C (Figure S1). Cells were subcultured to 80% confluency.
(§2) For transport experiments, Caco-2 cells were seeded at a cell density of 1×10^5 cells•cm^−2 on Millicell Cell Culture Inserts (Millipore, Billerica, MA, USA). Cells were used 19 to 21 days after seeding, by which time the transepithelial electrical resistance value was >300 Ω•cm^–2. The culture medium was replaced with fresh medium 24 h before the transport experiments. Polyphenol compounds (50 µM) were added from the apical or basolateral side to evaluate the transport characteristics of the cells. To investigate the role of different transporters, Caco-2 cells were preincubated with verapamil (an inhibitor of P-glycoprotein), cyclosporine A (a dual inhibitor of P-glycoprotein and multi-drug resistance protein 2, MRP2), or phloridzin, (a selective inhibitor of sodium/glucose cotransporter 1, SGLT1) to investigate the absorptive and transport changes of the polyphenol compounds [19]–[20]. The samples were collected and stored at −70°C until needed for analysis.

Caco-2 cells [2] = assay: as above; type: in vitro ADME, human; conditions: 50 µM, parent compound
Description: as §1, §2

Caco-2 cells [3] = assay: Cellular uptake / intracellular accumulation in Caco-2 cells, with or without transporter inhibitors; type: in vitro ADME, human; conditions: for Intracellular accumulation / uptake in the presence of phloridzin: 50 µM phloridzin (SGLT1 inhibitor); for Time of maximum intracellular accumulation (given as Cmax): 50 µM, parent compound in Caco-2 cells; for Intracellular accumulation after pre-treatment with cyclosporine A: 100 µM cyclosporine A (P-glycoprotein and MRP2 inhibitor); for Intracellular accumulation after pre-treatment with verapamil: 100 µM verapamil (P-glycoprotein inhibitor)
Description: Caco-2 cells, derived from human colorectal adenocarcinoma cells, were obtained from the American Type Culture Collection (Manassas, VA, USA) and maintained in plastic culture flasks (Corning Costar, Cambridge, MA, USA). […] Cells were subcultured to 80% confluency. For all cellular uptake studies of polyphenols, Caco-2 cells were seeded at a cell density of 6×10^5 cells•cm^–2 on six-well plastic plates. Cells were used 14 to 21 days after seeding. The culture medium was replaced with fresh medium 24 h before the uptake experiments. Polyphenol compounds (50 µM) were added to evaluate the uptake characteristics of Caco-2 cells. To determine the intracellular concentration of polyphenols, the cell lysate was obtained by subjecting the drug-containing cells to three freeze-thaw cycles in liquid nitrogen. Protein concentrations were measured using the Bradford method with bovine serum albumin as a standard. For transport experiments, Caco-2 cells were seeded at a cell density of 1×10^5 cells•cm^−2 on Millicell Cell Culture Inserts (Millipore, Billerica, MA, USA). […] The culture medium was replaced with fresh medium 24 h before the transport experiments. Polyphenol compounds (50 µM) were added from the apical or basolateral side to evaluate the transport characteristics of the cells. […] The samples were collected and stored at −70°C until needed for analysis.

[4] = Pharmacokinetics in rat plasma after oral administration of polyphenols; conditions: for AUC / Cmax: 50 µmol•kg^–1; for K / T1/2Ke / Tpeak: rat plasma, oral 50 µmol•kg^–1, mean ± SD, n = 6
Source text: Male Sprague-Dawley rats (70–110 days old) weighing between 270 g and 320 g were obtained from the experimental animal centre of the Fourth Military Medical University, Xi'an, China. The rats were subjected to fasting overnight, with free access to water before the day of experiment.
The polyphenol compounds solution, prepared in 0.5% sodium carboxyl methyl cellulose (CMC-Na), were orally administrated to the rats using a dose of 50 µmol•kg^–1. Blood samples were collected from the vena abdominalis under light ether anaesthesia at different times (0.08, 0.17, 0.5, 1, 2, 4, 8, 12, 16, 24 and 36 h). The samples were immediately centrifuged for 10 min at 7185 g to obtain plasma, which was then frozen at −70°C until required for analysis.
Metabolite samples were analyzed after treatment with β-glucuronidase or sulphatase [21]–[22]. The samples (0.2 mL) were extracted with 1 mL ethyl acetate by vigorous vortex mixing for 1 min, then centrifuged at 3000× g at room temperature for 10 min. The supernatants were evaporated to dryness under N2, reconstituted in 100 µL of methanol, and analyzed for the presence of polyphenols and their derivatives using liquid chromatography coupled with tandem mass spectrometry (LC/MS/MS) using a Quattro Premier system operating under MassLynx MS Software, v4.1 (Waters Corporation, Milford, MA, USA). […] Quantitation was performed by multiple reaction monitoring of the deprotonated precursor ion and the related product ion for these polyphenols using the internal standard method with peak area ratio [23]–[24]. Collision-induced dissociation was achieved using argon as the collision gas. Standard solutions of the polyphenol compounds (1 µg•mL^–1) were applied to optimize the detection conditions in the presence of mobile phase. […] The column temperature and flow rate were 25°C and 0.2 mL⋅min^–1, respectively.

[5] = male, Sprague-Dawley, rat, plasma, po
[6] = male, Sprague-Dawley, rat, in vivo, po
[7] = 1500 nmol applied, perfusion 60 min
[8] = 1500 nmol applied, perfusion 60 min, mean ± SD, n = 3

Total percentage of parent compound and metabolites, luminal side compared with vascular side (rat small intestine; rat, in vivo)	Luminal effluent, % of delivered dose (rat small intestine; rat, in vivo, 60 min)	Papp A→B at 50 µM [1] [×10⁻⁶ cm/s]	Papp B→A at 50 µM [1] [×10⁻⁶ cm/s]	Permeability value BL to AP compared with AP to BL (Caco-2 cells [2])	Intracellular accumulation / uptake in the presence of phloridzin (Caco-2 cells [3])	Time of maximum intracellular accumulation (given as Cmax) (Caco-2 cells [3])	Intracellular accumulation after pre-treatment with cyclosporine A (Caco-2 cells [3])	Intracellular accumulation after pre-treatment with verapamil (Caco-2 cells [3])	AUC [4, 5] [ng·h/mL]	Cmax [4, 5] [ng/mL]	K [4]	T1/2Ke [4] [h]	Tpeak [4] [h]	SMILES	further results
two- to three-fold greater	53.87 ^2%	13.8 ± 1.21	12.9 ± 2.54	no changes	no changes were observed	10 min	clearly increased	clearly increased	659 ± 25	42 ± 2	0.16±0.02 ^1 h^−1	2.11 ± 0.03	0.50 ± 0.01	O=c1cc(-c2ccc(O)cc2)oc2cc(O)cc(O)c12 [Apigenin]	
no clear differences	36.82 ^2%	10.8 ± 2.34	27.4 ± 4.19	much greater (by a factor of two)	reduced the cellular uptake	10 min	increased the uptake	increased the uptake	1720 ± 57	326 ± 18	0.08 ± 0.01 h⁻¹	8.00 ± 0.28	3.00 ± 0.01	Cc1cc(O)c2c(c1)C(=O)c1cccc(O)c1C2=O [Chrysophanol]	Vascular side, % of delivered dose (rat small intestine; rat, in vivo, 60 min): 32.22 ^2%
		11.3 ± 3.45	7.86 ± 2.67	lower	no changes were observed	increased in a time-dependent manner	clearly increased	clearly increased	98 ± 7	157 ± 13	0.38 ± 0.03 h⁻¹	1.82 ± 0.05		Oc1ccc(/C=C/c2cc(O)cc(O)c2)cc1 [Resveratrol]	Luminal effluent, % of delivered dose (rat small intestine; [7]): 35.37 ^2%; Vascular side, % of delivered dose (rat small intestine; [7]): 12.74 ^2%; Luminal effluent, amount (rat small intestine; [8]): 536 ± 27 nmol; Vascular side, amount (rat small intestine; [8]): 193 ± 11 nmol

SMILES	Total percentage of parent compound and metabolites, luminal side compared with vascular side (rat small intestine; rat, in vivo)	Luminal effluent, % of delivered dose (rat small intestine; rat, in vivo, 60 min)	Papp A→B at 50 µM [1] [×10⁻⁶ cm/s]	Papp B→A at 50 µM [1] [×10⁻⁶ cm/s]	Permeability value BL to AP compared with AP to BL (Caco-2 cells [2])	Intracellular accumulation / uptake in the presence of phloridzin (Caco-2 cells [3])	Time of maximum intracellular accumulation (given as Cmax) (Caco-2 cells [3])	Intracellular accumulation after pre-treatment with cyclosporine A (Caco-2 cells [3])	Intracellular accumulation after pre-treatment with verapamil (Caco-2 cells [3])	AUC [4, 5] [ng·h/mL]	Cmax [4, 5] [ng/mL]	K [4]	T1/2Ke [4] [h]	Tpeak [4] [h]	further results
Cc1cc(O)c2c(c1)C(=O)c1cc(O)cc(O)c1C2=O [Emodin]			9.52 ± 1.45	24.4 ± 3.22	much greater (by a factor of two)	reduced the cellular uptake	10 min	increased the uptake	increased the uptake			0.23 ± 0.04 h⁻¹	2.93 ± 0.04	0.50 ± 0.01	Total percentage of parent compound and metabolites, luminal side compared with vascular side (rat small intestine; isolated intestine perfusion, estimated): two- to three-fold greater; Plasma concentration of glucuronidated metabolites relative to sulphated metabolites [4, 6]: 10 fold; AUC [4, 6]: 809 ± 17 ng·h/mL; Cmax [4, 6]: 72 ± 6 ng/mL
